The source of these data is patent publication US12208118B2, “Pharmaceutical compositions for delivery of peptide” (ANYA BIOPHARM INC., priority 2017, dated 2025).

Molecules are shown by their SMILES.

Data set [1] in a line: Quantification of liraglutide level in dog plasma using ELISA kit. The class given is in vivo. The settings on record: following subcutaneous and oral administration, dogs. The protocol:
Quantification of Liraglutide Level in Dog Plasma Using ELISA Kit
Test formulation I: Liraglutide—Appearance: Solution for injection in a prefilled pen; Concentration: 6 mg/ml; Date of manufacture: February 2017; Date of expiry: July 2019; Storage condition: 2-8° C.; Dose: 0.6 mg/dog; Route: SC.
Test formulation II (FA): MIRA 5 (Table 15E)+PA 2 (Table 16F)—Dose: 12 mg (one capsule)/dog; Route: Oral.
Test formulation III (G): MIRA 5 (Table 15E)+PA 3+4 (Table 16G)—Dose: 12 mg (one capsule)/dog; Route: Oral
The clinical signs observed are normal. Body weights of the dogs used in the study were recorded prior to dosing. During the period of dose administration, the dogs (Canis lupus familiaris. Breed: Beagle) were fasted (water allowed) overnight for approx. 12 hours prior to and 4 hours post dose administration. During dosing, the blood collection time points was at 0, 20, 30, 60, 120, 180, 240, 480 minutes post dose. […] Glucose was measured immediately after blood collection using Glucometer. […]
Kit Protocol: Used manufacturer recommended protocol (Cat.No.KBI5020) Ver2.0—(1) Determine wells for diluted standard, blank and sample. […] Add 50 μL each of dilutions of standard (read Reagent Preparation), blank and samples into the appropriate wells, respectively. […] Then, run the microplate reader and conduct measurement at 450 nm immediately.
(In general: In an ELISA, binding on a coated surface is turned into a signal by an enzyme label.)

Data set [2] is described as follows: Quantification of teriparatide in rat plasma using ELISA kit. The data set is classed as in vivo, S.D. rats. The settings on record: following subcutaneous and distal small intestine (ileum) administration, rats. Here is the method: Quantification of Teriparatide in Rat Plasma Using ELISA Kit
Test formulation I: Teriparatide; Apprearance: Solution for injection; Concentration: 600 μg/2.4 ml; Storage condition: 2-8° C.; Dose: 10 μg/animal; Route: SC.
Test formulation II: MIRA 4 (Table 15D) plus PA1 (Table 16D) was dosed into distal small intestine (ileum) at a dose of 240 μg/animal to anesthetized rats; Dose: 240 μg/animal; Route: distal small intestine (ileum).
Test formulation III: MIRA 1 (Table 15A) plus PA3 (Table 16E) was dosed into distal small intestine (ileum) at a dose of 240 μg/animal to anesthetized S.D. rats; Dose: 240 μg/animal; Route: distal small intestine (ileum).
During the experiment, the animals were non-fasted. […] The clinical signs observed are normal. […]
Kit Protocol: Used manufacturer recommended protocol (Cat.No. 60-3900)—Place a sufficient number of Streptavidin Coated Strips in a holder to run PTH standards, controls and unknown samples; Pipet 150 μL of standard, control, or sample into the designated or mapped well. […] Read the absorbance at 620 nm (see Note) within 5 minutes in a microtiter plate reader against the 0 μg/mL Standard wells as a blank; Immediately pipet 50 μL of ELISA Stop Solution into each of the wells. […]

Data set [3] can be described thus: Quantification of octreotide in rat plasma using ELISA kit. The class given is in vivo, S.D. rat. The settings on record: following subcutaneous and distal small intestine (ileum) administration, rats. The protocol:
Quantification of Octreotide in Rat Plasma Using ELISA Kit
Test formulation I: Octreotide—Apprearance: Solution for injection; Concentration: 0.1 mg/ml; Storage condition: 2-8° C.; Dose: 10 μg/kg; Route: SC.
Test formulation II: MIRA 3 (Table 15C)+PA 1 (Table 16C) to be dosed into distal small intestine (ileum) to anesthetized S.D. rat; Dose: 144 μg/animal; Route: distal small intestine (ileum). During the experiment, the animals were non-fasted.
The clinical signs observed are normal. During dosing, the blood collection time points were at 0, 7, 15, 30, 45, 60 and 90 min post dose. ˜100 μl of blood was collected in a pre-filled Na-EDTA eppendorf, from retro-orbital sinus puncture. Blood was centrifuged at 5000 rpm, 5 min, 4° c. to obtain plasma.
Source: PeninsulaLaboratories International, Inc, Cat. No. S-1341.0001
Kit Protocol: Used manufacturer recommended protocol (Cat. No. S-1341.0001)—Into each well of the immunoplate add 25 μl antiserum (in EIA buffer). Add 25 μl EIA buffer to blank wells; Incubate at room temperature for 1 hour; Add 50 μl standard or sample (in diluent). […] Add 50 μl diluent to blank wells; Incubate at room temperature for 2 hours. […] You may read the developing blue color at 650 nm and use the data for your calculations. […] Read absorbance at 450 nm within ten minutes.

As to `CCCCCCCCCCCCCCCC(=O)N[C@@H](CCC(=O)NCCCC[C@H](NC(=O)[C@H](C)NC(=O)[C@H](C)NC(=O)[C@H](CCC(N)=O)NC(=O)CNC(=O)[C@H](CCC(=O)O)NC(=O)[C@H](CC(C)C)NC(=O)[C@H](Cc1ccc(O)cc1)NC(=O)[C@H](CO)NC(=O)[C@H](CO)NC(=O)[C@@H](NC(=O)[C@H](CC(=O)O)NC(=O)[C@H](CO)NC(=O)[C@@H](NC(=O)[C@H](Cc1ccccc1)NC(=O)[C@@H](NC(=O)CNC(=O)[C@H](CCC(=O)O)NC(=O)[C@H](C)NC(=O)[C@@H](N)Cc1cnc[nH]1)[C@@H](C)O)[C@@H](C)O)C(C)C)C(=O)N[C@@H](CCC(=O)O)C(=O)N[C@@H](Cc1ccccc1)C(=O)N[C@H](C(=O)N[C@@H](C)C(=O)N[C@@H](Cc1c[nH]c2ccccc12)C(=O)N[C@@H](CC(C)C)C(=O)N[C@H](C(=O)N[C@@H](CCCNC(=N)N)C(=O)NCC(=O)N[C@@H](CCCNC(=N)N)C(=O)NCC(=O)O)C(C)C)[C@@H](C)CC)C(=O)O` [Liraglutide], in data set [1], the clinical signs entry is reported as “normal” and the mortality result is reported as “no mortality observed”.

With `CC[C@H](C)[C@H](NC(=O)[C@H](CCC(=O)O)NC(=O)[C@H](CO)NC(=O)[C@@H](NC(=O)[C@@H](N)CO)C(C)C)C(=O)N[C@@H](CCC(N)=O)C(=O)N[C@@H](CC(C)C)C(=O)N[C@@H](CCSC)C(=O)N[C@@H](Cc1cnc[nH]1)C(=O)N[C@@H](CC(N)=O)C(=O)N[C@@H](CC(C)C)C(=O)NCC(=O)N[C@@H](CCCCN)C(=O)N[C@@H](Cc1cnc[nH]1)C(=O)N[C@@H](CC(C)C)C(=O)N[C@@H](CC(N)=O)C(=O)N[C@@H](CO)C(=O)N[C@@H](CCSC)C(=O)N[C@@H](CCC(=O)O)C(=O)N[C@@H](CCCN=C(N)N)C(=O)N[C@H](C(=O)N[C@@H](CCC(=O)O)C(=O)N[C@@H](Cc1c[nH]c2ccccc12)C(=O)N[C@@H](CC(C)C)C(=O)N[C@@H](CCCN=C(N)N)C(=O)N[C@@H](CCCCN)C(=O)N[C@@H](CCCCN)C(=O)N[C@@H](CC(C)C)C(=O)N[C@@H](CCC(N)=O)C(=O)N[C@@H](CC(=O)O)C(=O)N[C@H](C(=O)N[C@@H](Cc1cnc[nH]1)C(=O)N[C@@H](CC(N)=O)C(=O)N[C@@H](Cc1ccccc1)C(=O)O)C(C)C)C(C)C` [teriparatide], in data set [2], the clinical signs entry is “normal” and the mortality result is “no mortality observed”.

On to `C[C@@H](O)[C@@H]1NC(=O)[C@H](CCCCN)NC(=O)[C@@H](Cc2c[nH]c3ccccc23)NC(=O)[C@H](Cc2ccccc2)NC(=O)[C@@H](NC(=O)[C@H](N)Cc2ccccc2)CSSC[C@@H](C(=O)N[C@H](CO)[C@@H](C)O)NC1=O` [octreotide], for which, in data set [3], the clinical signs entry was “normal” and the mortality entry is on record as “no mortality observed”.
